Species: Rattus norvegicus
Assay: Open TG-GATES - Regimen: Single
Assay type: toxicity, organism-based, Sprague-Dawley
Set-up: regimen Single, gender Male, age 6 weeks
Conditions: in vivo, po, 60 mg/kg, route gavage, dose level Low; for Bas / Eos / Lym / MCHC / MCV / Mono / Neu / RBC / Ret / WBC: tissue Blood; for KIDNEY_L / KIDNEY_R / KIDNEY_TOTAL: tissue Kidney; for LIVER: tissue Liver; for ALP / AST / CRE / DBIL / GLC / IP / K / LDH / Na / PL / RALB / TBIL / TC / TP / gamma-GTP: tissue Plasma

`CS(=O)(=O)O.Cc1ccc(NC(=O)c2ccc(CN3CCN(C)CC3)cc2)cc1Nc1nccc(-c2cccnc2)n1` [IMATINIB MESYLATE] was tested, and the Bas (3 h) was 0%, the Eos (3 h) was 1% and the Lym (3 h) was 73.4%. For the same compound, the MCHC (3 h) was 32.7%, the MCV (3 h) was 63.2 fL and the Mono (3 h) was 3%. It also gave a Neu (3 h) of 21.6%, an RBC (3 h) of 603 x10_4/ul and a Ret (3 h) of 9.5%. It also gave a WBC (3 h) of 109.9 x10_2/uL, a KIDNEY_L (3 h) of 0.9 g and a KIDNEY_R (3 h) of 0.9 g. For the same compound, the KIDNEY_TOTAL (3 h) was 1.7 g, the LIVER (3 h) was 9.3 g and the ALP (3 h) was 1755.4 IU/L. It also gave an AST (3 h) of 81.6 IU/L, a CRE (3 h) of 0.2 mg/dL and a DBIL (3 h) of 0.008 mg/dL. The GLC (3 h) was 187 mg/dL, the IP (3 h) was 8.6 mg/dL and the K (3 h) was 4.1 meq/L. For the same compound, the LDH (3 h) was 243.6 IU/L, the Na (3 h) was 142.4 meq/L and the PL (3 h) was 150.2 mg/dL. It also gave an RALB (3 h) of 4 g/dL, a TBIL (3 h) of 0.03 mg/dL and a TC (3 h) of 82.8 mg/dL. For the same compound, the TP (3 h) was 5.5 g/dL, the gamma-GTP (3 h) was 0.8 IU/L and the Bas (6 h) was 0%. The Eos (6 h) was 0.8%, the Lym (6 h) was 80.6% and the MCHC (6 h) was 32.8%. It also gave an MCV (6 h) of 63.4 fL, a Mono (6 h) of 2% and a Neu (6 h) of 16.2%. The RBC (6 h) was 618.6 x10_4/ul, the Ret (6 h) was 9.5% and the WBC (6 h) was 104.6 x10_2/uL. For the same compound, the KIDNEY_L (6 h) was 0.9 g, the KIDNEY_R (6 h) was 0.9 g and the KIDNEY_TOTAL (6 h) was 1.8 g. For the same compound, the LIVER (6 h) was 8.4 g, the ALP (6 h) was 1520 IU/L and the AST (6 h) was 77.6 IU/L. For the same compound, the CRE (6 h) was 0.2 mg/dL, the DBIL (6 h) was 0.008 mg/dL and the GLC (6 h) was 190.8 mg/dL. The IP (6 h) was 9.4 mg/dL, the K (6 h) was 4.2 meq/L and the LDH (6 h) was 238 IU/L. It also gave a Na (6 h) of 140.7 meq/L, a PL (6 h) of 152.8 mg/dL and an RALB (6 h) of 4 g/dL. For the same compound, the TBIL (6 h) was 0.03 mg/dL, the TC (6 h) was 82.4 mg/dL and the TP (6 h) was 5.4 g/dL. It also gave a gamma-GTP (6 h) of 0.7 IU/L, a Bas (9 h) of 0% and an Eos (9 h) of 1%. The Lym (9 h) was 73.8%, the MCHC (9 h) was 33% and the MCV (9 h) was 63.2 fL. For the same compound, the Mono (9 h) was 2.2%, the Neu (9 h) was 22.6% and the RBC (9 h) was 613.6 x10_4/ul. The Ret (9 h) was 8.7%, the WBC (9 h) was 94.3 x10_2/uL and the KIDNEY_L (9 h) was 0.8 g. It also gave a KIDNEY_R (9 h) of 0.9 g, a KIDNEY_TOTAL (9 h) of 1.7 g and an LIVER (9 h) of 8.2 g. It also gave an ALP (9 h) of 1712.2 IU/L, an AST (9 h) of 75.4 IU/L and a CRE (9 h) of 0.2 mg/dL. The DBIL (9 h) was 0.006 mg/dL, the GLC (9 h) was 183.2 mg/dL and the IP (9 h) was 9.4 mg/dL. For the same compound, the K (9 h) was 4 meq/L, the LDH (9 h) was 176.4 IU/L and the Na (9 h) was 140 meq/L. The PL (9 h) was 137.4 mg/dL, the RALB (9 h) was 4 g/dL and the TBIL (9 h) was 0.016 mg/dL. It also gave a TC (9 h) of 77.8 mg/dL, a TP (9 h) of 5.5 g/dL and a gamma-GTP (9 h) of 0.7 IU/L. It also gave a Bas (24 h) of 0%, an Eos (24 h) of 0.6% and a Lym (24 h) of 85%. The MCHC (24 h) was 33.1%, the MCV (24 h) was 64.4 fL and the Mono (24 h) was 2.4%. It also gave a Neu (24 h) of 11.6%, an RBC (24 h) of 590.4 x10_4/ul and a Ret (24 h) of 8.2%. The WBC (24 h) was 87.7 x10_2/uL, the KIDNEY_L (24 h) was 0.9 g and the KIDNEY_R (24 h) was 0.9 g. The KIDNEY_TOTAL (24 h) was 1.8 g, the LIVER (24 h) was 10 g and the ALP (24 h) was 1709.8 IU/L. The AST (24 h) was 77.2 IU/L, the CRE (24 h) was 0.2 mg/dL and the DBIL (24 h) was 0.002 mg/dL. The GLC (24 h) was 186.4 mg/dL, the IP (24 h) was 7.6 mg/dL and the K (24 h) was 4 meq/L. It also gave an LDH (24 h) of 197 IU/L, a Na (24 h) of 142.7 meq/L and a PL (24 h) of 162.8 mg/dL. The RALB (24 h) was 4.1 g/dL, the TBIL (24 h) was 0.006 mg/dL and the TC (24 h) was 85.4 mg/dL. The TP (24 h) was 5.7 g/dL.

Reference: ChEMBL document CHEMBL3885861, “Open TG-GATES”
